Laboratory results reported in ChEMBL document CHEMBL1221212, “Small-molecule activation of neuronal cell fate” (Nat Chem Biol, 2008).
Activity calls are given as the source filed them. No cut-off for these calls is given here.

Legend:
HCN [1] = assay: Induction of rat HCN cell differentiation assessed as induction of neuronal reporter neuroD activity at 20 uM after 24 hrs by luciferase reporter gene assay; assay type: functional, cell-based
HCN [2] = assay: Induction of rat HCN cell differentiation assessed as induction of neuronal reporter neuroD activity by luciferase reporter gene assay; assay type: functional, cell-based
HCN [3] = assay: Inhibition of LIF/BMP2-mediated rat HCN cell differentiation into astrocytes at 25 uM; assay type: functional, cell-based
Neuronal progenitor cell [4] = assay: Induction of mouse neuronal progenitor cell differentiation at 25 uM after 4 days; assay type: functional, cell-based
P19CL6 [5] = assay: Induction of mouse C57BL/6 P19CL6 cell differentiation assessed as induction of neuronal reporter gluR2 expression by luciferase reporter gene assay; assay type: functional, cell-based
P19CL6 [6] = assay: Induction of C57BL/6 mouse P19CL6 cell differentiation at 50 uM after 4 days; assay type: functional, cell-based
Neuronal progenitor cell [7] = assay: Induction of mouse progenitor cell differentiation into Tuj1 neurons at 20 uM after 4 days; assay type: functional, cell-based
HCN [8] = assay: Inhibition of gliogenesis differentiation in rat HCN cells at 25 uM after 4 days; assay type: functional, cell-based
Rattus norvegicus = species on record: Rattus norvegicus; assay: Induction of rat HCN differentiation into Tuj1 neurons at 25 uM after 4 days; assay type: functional
HCN [9] = assay: Induction of rat HCN cell differentiation assessed as increase in neuroD gene expression after 3 hrs by RT-PCR analysis; assay type: functional, cell-based
HCN [10] = assay: Induction of rat HCN cell differentiation assessed as increase in GluR2 gene expression after 3 hrs by RT-PCR analysis; assay type: functional, cell-based
HCN [11] = assay: Induction of rat HCN cell differentiation assessed as increase in Tuj1 gene expression after 3 hrs by RT-PCR analysis; assay type: functional, cell-based
HCN [12] = assay: Induction of rat HCN cell differentiation assessed as increase in NR1 gene expression after 3 hrs by RT-PCR analysis; assay type: functional, cell-based
HCN [13] = assay: Induction of rat HCN cell differentiation assessed as increase in neuroD gene expression after 1 day by RT-PCR analysis; assay type: functional, cell-based
HCN [14] = assay: Induction of rat HCN cell differentiation assessed as increase in GluR2 gene expression after 1 day by RT-PCR analysis; assay type: functional, cell-based
HCN [15] = assay: Induction of rat HCN cell differentiation assessed as increase in Tuj1 gene expression after 1 day by RT-PCR analysis; assay type: functional, cell-based
HCN [16] = assay: Induction of rat HCN cell differentiation assessed as increase in NR1 gene expression after 1 day by RT-PCR analysis; assay type: functional, cell-based
HCN [17] = assay: Induction of rat HCN cell differentiation assessed as increase in neuroD gene expression after 3 days by RT-PCR analysis; assay type: functional, cell-based
HCN [18] = assay: Induction of rat HCN cell differentiation assessed as increase in GluR2 gene expression after 3 days by RT-PCR analysis; assay type: functional, cell-based
HCN [19] = assay: Induction of rat HCN cell differentiation assessed as increase in Tuj1 gene expression after 3 days by RT-PCR analysis; assay type: functional, cell-based
HCN [20] = assay: Induction of rat HCN cell differentiation assessed as increase in NR1 gene expression after 3 days by RT-PCR analysis; assay type: functional, cell-based
HCN [21] = assay: Induction of rat HCN cell differentiation assessed as increase in beta-TUB3 gene expression after 9 days by RT-PCR analysis; assay type: functional, cell-based
HCN [22] = assay: Induction of rat HCN cell differentiation assessed as increase in DCX gene expression after 9 days by RT-PCR analysis; assay type: functional, cell-based
HCN [23] = assay: Induction of rat HCN cell differentiation assessed as increase in MAP2AB gene expression after 9 days by RT-PCR analysis; assay type: functional, cell-based
HCN [24] = assay: Induction of rat HCN cell differentiation assessed as increase in p27Kip1 gene expression after 9 days by RT-PCR analysis; assay type: functional, cell-based
HCN [25] = assay: Induction of LIF/BMP2-mediated rat HCN cell differentiation into GFAP-positive astrocytes after 4 days; assay type: functional, cell-based
HCN [26] = assay: Induction of LIF/BMP2-mediated rat HCN cell differentiation into Tuj1 neurons after 4 days; assay type: functional, cell-based
HCN [27] = assay: Induction of L-type calcium channel/NMDA receptor-mediated Ca2+ influx in rat HCN cells; assay type: cell-based
HCN [28] = assay: Induction of L-type calcium channel/NMDA receptor-mediated Ca2+ influx in rat HCN cells in presence multiple inhibitors; assay type: cell-based
[29] = molecular target: T1, Glutamate NMDA receptor (Rattus norvegicus) (UniProt P35439+Q00959+Q00960+Q00961+Q62645+Q8VHN2+Q9R1M7); assay: Induction of NMDA receptor-mediated Ca2+ influx in rat HCN cells in presence of NMDA receptor antagonist MK801; assay type: functional, cell-based
HCN [30] = assay: Induction of L-type calcium channel/NMDA receptor-mediated Ca2+ influx in rat HCN cells at 5 uM by Fura-2 imaging analysis; assay type: cell-based
HCN [31] = assay: Induction of L-type calcium channel/NMDA receptor-mediated Ca2+ influx in rat HCN cells at 5 uM by Fura-2 imaging analysis in presence of multiple of inhibitors; assay type: cell-based
[32] = molecular target: T1, Glutamate NMDA receptor (Rattus norvegicus); assay: Induction of NMDA receptor-mediated Ca2+ influx in rat HCN cells at 5 uM by Fura-2 imaging analysis in presence of NMDA receptor antagonist MK801; assay type: functional, cell-based
HCN [33] = assay: Induction of rat HCN cell differentiation assessed as increase in neuroD gene expression at 10 uM after 3 hrs by RT-PCR analysis; assay type: functional, cell-based
HCN [34] = assay: Induction of L-type calcium channel/NMDA receptor-mediated neuroD gene expression in rat HCN cells at 50 uM after 3 hrs by RT-PCR analysis in presence of multiple inhibitors; assay type: cell-based
[35] = molecular target: T1, Glutamate NMDA receptor (Rattus norvegicus); assay: Induction of NMDA receptor-mediated neuroD gene expression in rat HCN cells at 50 uM after 3 hrs by RT-PCR analysis in presence of NMDA receptor antagonist MK801; assay type: functional, cell-based
[36] = molecular target: T1, Glutamate NMDA receptor (Rattus norvegicus); assay: Induction of NMDA receptor-mediated neuroD gene expression in rat HCN cells at 50 uM after 3 hrs by RT-PCR analysis in presence of NMDA receptor antagonist nifedipine; assay type: functional, cell-based
HCN [37] = assay: Induction of L-type calcium channel/NMDA receptor-mediated neuroD gene expression in rat HCN cells at 50 uM after 24 hrs by RT-PCR analysis in presence of multiple inhibitors; assay type: cell-based
[38] = molecular target: T1, Glutamate NMDA receptor (Rattus norvegicus); assay: Induction of NMDA receptor-mediated neuroD gene expression in rat HCN cells at 50 uM after 24 hrs by RT-PCR analysis in presence of NMDA receptor antagonist MK801; assay type: functional, cell-based
[39] = molecular target: T1, Glutamate NMDA receptor (Rattus norvegicus); assay: Induction of NMDA receptor-mediated neuroD gene expression in rat HCN cells at 50 uM after 24 hrs by RT-PCR analysis in presence of NMDA receptor antagonist nifedipine; assay type: functional, cell-based
HCN [40] = assay: Induction of rat HCN cell differentiation assessed as induction of induction of MREx3 gene expression by luciferase reporter gene assay; assay type: functional, cell-based
[41] = Induction of rat HCN cell differentiation assessed as upregulation of MEF2C expression after 2 to 4 days by protein blotting analysis; assay type: functional, cell-based
[42] = Induction of rat HCN cell differentiation assessed as upregulation of MEF2A expression after 2 to 4 days by protein blotting analysis; assay type: functional, cell-based
[43] = Induction of rat HCN cell differentiation assessed as upregulation of MEF2D expression after 2 to 4 days by protein blotting analysis; assay type: functional, cell-based
HCN [44] = assay: Induction of neurogenesis in undifferentiated rat HCN cells assessed as MEF2A protein level at 8 to 64 uM after 9 hrs by protein blotting analysis; assay type: functional, cell-based
HCN [45] = assay: Induction of neurogenesis in undifferentiated rat HCN cells assessed as MEF2C protein level at 8 to 64 uM after 9 hrs by protein blotting analysis; assay type: functional, cell-based
HCN [46] = assay: Induction of neurogenesis in undifferentiated rat HCN cells assessed as MAP2AB protein level at 8 to 64 uM after 9 hrs by protein blotting analysis; assay type: functional, cell-based
HCN [47] = assay: Induction of neurogenesis in undifferentiated rat HCN cells assessed as GlR2/3 protein level at 8 to 64 uM after 9 hrs by protein blotting analysis; assay type: functional, cell-based
HCN [48] = assay: Induction of HDAC5 phosphorylation in rat HCN cells after 6 hrs; assay type: functional, cell-based
HCN [49] = assay: Induction of HDAC5 phosphorylation in rat HCN cells after 24 hrs; assay type: functional, cell-based
HCN [50] = assay: Induction of HDAC5 translocation in cytoplasm of rat HCN cells assessed as phosphorylated HDAC5 accumulation; assay type: functional, cell-based
HCN [51] = assay: Effect on subcellular distribution of MEF2A protein in rat HCN cells after 5 days; assay type: functional, cell-based
HCN [52] = assay: Effect on subcellular distribution of MEF2C protein in rat HCN cells after 5 days; assay type: functional, cell-based
HCN [53] = assay: Effect on subcellular distribution of CREB protein in rat HCN cells after 5 days; assay type: functional, cell-based
HCN [54] = assay: Induction of HDAC5 translocation in nucleus of rat HCN cells assessed as GFP-HDAC5 fusion protein accumulation at 20 uM by fluorescence assay; assay type: functional, cell-based
HCN [55] = assay: Induction of CAMK-mediated MREx3 activity in rat HCN cells by luciferase reporter gene assay in presence of 2.5 uM CAMK inhibitor KN93; assay type: cell-based
HCN [56] = assay: Induction of CAMK-mediated MREx3 activity in rat HCN cells by luciferase reporter gene assay in presence of 200 nM PKC inhibitor Go6976; assay type: cell-based
HCN [57] = assay: Induction of CAMK-mediated HDAC5 phosphorylation in rat HCN cells by Western blot analysis in presence of 2.5 uM CAMK inhibitor KN93; assay type: cell-based
HCN [58] = assay: Induction of CAMK2 phosphorylation in rat HCN cells by Western blot analysis in presence of 2.5 uM CAMK inhibitor KN93; assay type: cell-based
HCN [59] = assay: Induction of CAMK-mediated MREx3 activity in rat HCN cells by luciferase reporter gene assay in presence of 2.5 uM potassium channel inhibitor KN92; assay type: cell-based
[60] = Induction of rat HCN cell proliferation at 20 uM after 20 days by BrdU incorporation assay; assay type: functional
HCN [61] = assay: Induction of rat HCN cell differentiation into Tuj1 neurons at 20 uM after 4 days in presence of caspase inhibitor Q-VD-Oph; assay type: functional, cell-based
[62] = Cytotoxicity in rat HCN cells at 20 uM after 4 days; assay type: cell-based; details: 96 h
Neuronal progenitor cell [63] = assay: Induction of mouse progenitor cell differentiation into Map2ab-positive neurons at 20 uM after 4 days; assay type: functional, cell-based
HCN [64] = assay: Induction of HDAC5 translocation in nucleus of rat HCN cells assessed as GFP-HDAC5 S258A S498A mutant fusion protein accumulation at 5 uM by fluorescence assay; assay type: functional, cell-based
P19CL6 [65] = assay: Induction of mouse C57BL/6 P19CL6 cell differentiation assessed as induction of neuronal reporter neuroD activity by luciferase reporter gene assay; assay type: functional, cell-based

CNC(=O)c1cc(-c2cccs2)on1
Activity (HCN [1]): Active

O=C(NC1CCC1)c1cc(-c2cccs2)on1
Activity (HCN [1]): Active

O=C(NC1CC1)c1cc(-c2cccs2)on1
Activity (HCN [2]): Dose-dependent effect
Activity (HCN [1]): Active
inhibition (HCN [3]): Active
Activity (Neuronal progenitor cell [4]): Active
Activity (P19CL6 [5]): Dose-dependent effect
Activity (P19CL6 [6]): Active
Activity (Neuronal progenitor cell [7]): Active
inhibition (HCN [8]): Active
Activity (Rattus norvegicus): Active
Activity (HCN [9]): Active
Activity (HCN [10]): Active
Activity (HCN [11]): Active
Activity (HCN [12]): Active
Activity (HCN [13]): Active
Activity (HCN [14]): Active
Activity (HCN [15]): Active
Activity (HCN [16]): Active
Activity (HCN [17]): Active
Activity (HCN [18]): Active
Activity (HCN [19]): Active
Activity (HCN [20]): Active
Activity (HCN [21]): Active
Activity (HCN [22]): Active
Activity (HCN [23]): Active
Activity (HCN [24]): Active
inhibition (HCN [25]): Active
Activity (HCN [26]): Active
Activity (HCN [27]): Active
Activity (HCN [28]): Active
Activity [29]: Active
Activity (HCN [30]): Active
Activity (HCN [31]): Active
Activity [32]: Active
Activity (HCN [33]): Active
Activity (HCN [34]): Active
Activity [35]: Active
Activity [36]: Active
Activity (HCN [37]): Active
Activity [38]: Active
Activity [39]: Active
Activity (HCN [40]): Dose-dependent effect
Activity [41]: Active
Activity [42]: inactive
Activity [43]: Active
Activity (HCN [44]): inactive
Activity (HCN [45]): inactive
Activity (HCN [46]): Active
Activity (HCN [47]): Active
Activity (HCN [48]): Active
Activity (HCN [49]): Active
Activity (HCN [50]): Active
Activity (HCN [51]): inactive
Activity (HCN [52]): inactive
Activity (HCN [53]): inactive
Activity (HCN [54]): Active
Activity (HCN [55]): inactive
Activity (HCN [56]): Active
Activity (HCN [57]): inactive
Activity (HCN [58]): inactive
Activity (HCN [59]): Active
Activity [60]: 40%
Activity (HCN [61]): Active
Activity [62]: 18%
Activity (Neuronal progenitor cell [63]): Active
Activity (HCN [64]): Active

O=C(NC1CCCC1)c1cc(-c2ccco2)on1
Activity (P19CL6 [65]): Dose-dependent effect
Activity (HCN [2]): Dose-dependent effect

C=CCNC(=O)c1cc(-c2cccs2)on1
Activity (P19CL6 [65]): Dose-dependent effect

O=C(NC1CCCCC1)c1cc(-c2cccs2)on1
Activity (HCN [1]): Active

Cc1cc(C(=O)Nc2sc3c(c2C#N)CCCC3)no1
Activity (HCN [2]): Dose-dependent effect

O=C(NC1CCCC1)c1cc(-c2cccs2)on1
Activity (HCN [2]): Dose-dependent effect
Activity (HCN [1]): Active
